Measurements from PubChem BioAssay (NCI).
Several values for one entry are separate records, joined by “and”; a condition that tells them apart may be missing. Equal entries are not always repeated.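 Tested at 5 concentrations; 48 h exposure; 96-well plates; endpoints linearly interpolated, else capped at highest concentration. GI50 = concentration required for 50% inhibition of growth. TGI: concentration producing complete growth inhibition.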

Legend:
Assay in all cases: growth of human tumour cells (NCI), 48 h
HCT-15 colon = test system: HCT-15 colon
HOP-62 NSCLC = test system: HOP-62 NSCLC
LOX IMVI melanoma = test system: LOX IMVI melanoma
NCI/ADR-RES ovarian = test system: NCI/ADR-RES ovarian
OVCAR-3 ovarian = test system: OVCAR-3 ovarian
PC-3 prostate = test system: PC-3 prostate
SF-539 CNS = test system: SF-539 CNS
UO-31 renal = test system: UO-31 renal

Compound | GI50 (HCT-15 colon) [µM] | TGI (HCT-15 colon) | GI50 (HOP-62 NSCLC) [µM] | TGI (HOP-62 NSCLC) [µM] | GI50 (LOX IMVI melanoma) | TGI (LOX IMVI melanoma) | GI50 (NCI/ADR-RES ovarian) [µM] | TGI (NCI/ADR-RES ovarian) | GI50 (OVCAR-3 ovarian) [µM] | TGI (OVCAR-3 ovarian) | GI50 (PC-3 prostate) | TGI (PC-3 prostate) | GI50 (SF-539 CNS) | TGI (SF-539 CNS) | GI50 (UO-31 renal) [µM] | TGI (UO-31 renal)
CC1(C)[C@@H](O[C@@H]2OC[C@@H](O[C@@H]3O[C@H](CO)[C@@H](O)[C@H](O)[C@H]3O[C@@H]3OC[C@@H](O)[C@H](O)[C@H]3O)[C@H](O)[C@H]2O[C@@H]2O[C@H](CO)[C@@H](O)[C@H](O)[C@H]2O)CC[C@]2(C)[C@H]3CC[C@]45OC[C@@]6(CC[C@](C)(C=O)C[C@H]64)[C@H](O)C[C@@]5(C)[C@]3(C)CC[C@@H]12 | 1.62 | 4.37 µM | 0.898 | 1.79 | 0.924 µM | 1.95 µM | 1.24 | 3.43 µM | 1.01 | 2.06 µM | 0.884 µM | 1.78 µM | 1.21 µM | 3.35 µM | 0.649 | 1.32 µM
CCC1CCc2nc3sc(C(=O)Nc4cccc(F)c4)c(N)c3cc2C1 (stereo unspecified) | 0.428 | > 100 µM | > 100 | > 100 | > 100 µM | > 100 µM | > 100 | > 100 µM | 0.757 | > 100 µM | > 100 µM | > 100 µM | > 100 µM | > 100 µM | > 100 | > 100 µM
Cc1cc(Cl)ccc1NC(=O)c1cc2ccccc2cc1O | 0.641 | > 100 µM | 2.68 | > 100 | 0.539 µM | > 100 µM | 0.433 |  | 0.369 | > 34.9 µM | 0.875 µM | 28.4 µM | 0.783 µM | > 100 µM | 0.405 | > 100 µM
CC(=O)O[C@]1(C(C)=O)CC[C@H]2[C@@H]3C=C(C)C4=CC(=O)CC[C@]4(C)[C@H]3CC[C@@]21C | > 100 | > 100 µM | > 100 | > 100 | > 100 µM | > 100 µM | 46.9 | > 100 µM | > 100 | > 100 µM | 42.6 µM | > 100 µM | > 61.4 µM | > 100 µM | > 100 | > 100 µM
COc1ccc2c(c1)n([O-])c1ccccc1[n+]2=O |  | > 100 µM and 37.3 µM |  | > 100 | 29.5 µM and 7.2 µM | > 100 µM and 31.6 µM |  | > 100 µM and 97.9 µM |  | > 100 µM and 58.7 µM | 91.9 µM and 28.3 µM | > 100 µM and 73.1 µM | 46.5 µM and 17.4 µM | > 100 µM and 45.9 µM |  | 46 µM and 36.6 µM
COc1cc(C2=C(C#Cc3ccccc3)COC2=O)cc(OC)c1OC | 1.3 | 9.39 µM | 0.706 | 2.61 | 0.738 µM | 3.92 µM | 5.43 | 22.2 µM | 2.1 | 16.8 µM | 1.05 µM | 20.3 µM | 0.646 µM | 4.87 µM | 3.6 | > 32.7 µM
CN1c2ccccc2C(C)(C)C12C=Cc1cc(O)ccc1O2 (stereo unspecified) | 3.41 | 14 µM | 3.44 | 10.6 | 3.41 µM | 12.6 µM | 1.96 | 7.14 µM | 2.16 | 5.23 µM | 3.6 µM | 12.6 µM | 1.94 µM | 4.15 µM | 4.02 | 19.5 µM
